# Legend:
# Assay in all cases: relative viability (nuclei count vs DMSO), 5 days (fraction); higher = more cells survive
# [1] = compound: CN1C=C(C2=CC=CC=C21)/C=C\3/C4=C(C=CC=N4)NC3=O + C[C@]1(O)C[C@@H](c2nc(-c3ccc4ccc(-c5ccccc5)nc4c3)c3c(N)nccn32)C1 [Linsitinib] (partner 1 µM)
# Procedure, shortened: (§1)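 For relative viability, nuclei counts in treated wells were divided by those in vehicle wells. Lung cancer cell lines had been pin-tool dosed in 1536-well plates the day after seeding and cultured for 5 days, then fixed and stained in one step (final 0.05% Triton X-100, 1% formaldehyde, 1 ug/ml Hoechst) and imaged at 4×. Doses were one drug alone or a fixed anchor-drug dose plus five library-drug doses (not always all listed) in √10 steps, and values are duplicate-plate medians.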
# [2] = compound: CN1C=C(C2=CC=CC=C21)/C=C\3/C4=C(C=CC=N4)NC3=O + CC(C)C[C@H](NC(=O)[C@H](Cc1ccccc1)NC(=O)c1cnccn1)B(O)O [Bortezomib] (partner 0.002 µM)
# Procedure, shortened: as §1
# [3] = compound: CC(=O)Nc1cccc(-n2c(=O)n(C3CC3)c(=O)c3c(Nc4ccc(I)cc4F)n(C)c(=O)c(C)c32)c1 [Trametinib] + CS(=O)(=O)CCNCc1ccc(-c2ccc3ncnc(Nc4ccc(OCc5cccc(F)c5)c(Cl)c4)c3c2)o1 [Lapatinib] (partner 2 µM)
# Procedure, shortened: as §1
# [4] = compound: CC(=O)Nc1cccc(-n2c(=O)n(C3CC3)c(=O)c3c(Nc4ccc(I)cc4F)n(C)c(=O)c(C)c32)c1 [Trametinib] + Cc1cc(Nc2cc(N3CCN(C)CC3)nc(Sc3ccc(NC(=O)C4CC4)cc3)n2)n[nH]1 [Tozasertib] (partner 0.1 µM)
# Procedure, shortened: as §1
Cell Line,relative viability ([1]; first compound 0.02 µM),relative viability ([1]; first compound 0.06325 µM),relative viability ([1]; first compound 0.2 µM),relative viability ([1]; first compound 2 µM),relative viability ([2]; first compound 0.02 µM),relative viability ([2]; first compound 0.06325 µM),relative viability ([2]; first compound 0.2 µM),relative viability ([2]; first compound 2 µM),relative viability ([3]; first compound 0.0025 µM),relative viability ([3]; first compound 0.007906 µM),relative viability ([3]; first compound 0.025 µM),relative viability ([3]; first compound 0.07906 µM),relative viability ([3]; first compound 0.25 µM),relative viability ([1]; first compound 0.6325 µM),relative viability ([4]; first compound 0.0025 µM),relative viability ([4]; first compound 0.007906 µM),relative viability ([4]; first compound 0.025 µM),relative viability ([4]; first compound 0.07906 µM),relative viability ([4]; first compound 0.25 µM)
NCI-H1792,0.37,0.495,0.391,0.486,0.784,0.977,0.835,0.889,0.976,0.79,0.682,0.535,0.417,–,–,–,–,–,–
NCI-H1793,1,1.06,0.748,0.884,–,–,–,–,0.478,0.531,0.397,0.395,0.352,0.95,0.281,0.226,0.253,0.164,0.205
NCI-H1944,1.19,1.18,–,1.23,–,–,–,–,0.76,0.632,0.588,0.493,0.396,1.32,0.262,0.21,0.185,0.185,0.177
NCI-H2170,–,–,–,–,–,–,–,–,0.311,0.258,–,0.261,0.246,–,0.733,0.702,0.466,0.709,0.616
NCI-H2342,–,–,–,–,–,–,–,–,–,–,–,–,–,–,0.488,0.435,–,0.516,0.492
SK-MES-1,0.937,1.18,1.09,1.06,–,–,–,–,0.447,0.39,0.352,0.362,0.344,1.02,0.955,0.921,0.745,0.466,0.361
SW 900,–,–,–,–,–,–,–,–,–,–,–,–,–,–,0.579,0.547,0.724,0.511,0.412

# From the supplement of paper PMC10307832
